Series [1] is described as follows: Stability in mouse plasma assessed as parent compound remaining after 24 hrs. Type of series: ADME, cell-free. To be noted: read-out: Stability.
Series [2] can be described thus: Stability in human plasma assessed as parent compound remaining after 24 hrs. Type of series: ADME, cell-free. To be noted: read-out: Stability.

Where a SMILES comes first, the peptide text is derived from it. [ ]: non-standard residue; d: D form. Tle = CC(C)(C)[C@H](N)C(=O)O; Aib = CC(C)(N)C(=O)O

For `CC(=O)N[C@@H](Cc1ccccc1)C(=O)N[C@@H](CCC(N)=O)C(=O)N[C@@H](CO)C(=O)N[C@@H](CCCCN)C(=O)N1CCC[C@@H]1C(=O)N[C@@H](CC(N)=O)C(=O)N[C@H](C(=O)N[C@@H](Cc1cnc[nH]1)C(=O)N[C@H](C(=O)N[C@@H](CC(=O)O)C(=O)NCC(=O)N[C@@H](Cc1ccc(O)cc1)C(=O)N[C@@H](Cc1ccccc1)C(=O)N[C@@H](CCC(=O)O)C(=O)N[C@@H](CCCNC(=N)N)C(=O)N[C@@H](CC(C)C)C(=O)NC(C)(C)C(=O)N[C@@H](C)C(=O)N[C@@H](CCCCN)C(=O)N[C@@H](CC(C)C)C(N)=O)c1ccccc1)C(C)C`, the remaining at 24 h in series [1] was determined as 4.8%; in series [2], 34.7%.
For `CC(=O)N[C@@H](Cc1cccs1)C(=O)N[C@@H](CCC(N)=O)C(=O)N[C@@H](CO)C(=O)N[C@@H](CCCCN)C(=O)N1CCC[C@@H]1C(=O)N[C@@H](CC(N)=O)C(=O)N[C@H](C(=O)N[C@@H](Cc1cnc[nH]1)C(=O)N[C@H](C(=O)N[C@@H](CC(=O)O)C(=O)NCC(=O)N[C@@H](Cc1ccc(O)cc1)C(=O)N[C@@H](Cc1ccccc1)C(=O)N[C@@H](CCC(=O)O)C(=O)N[C@@H](CCCNC(=N)N)C(=O)N[C@@H](CC(C)C)C(=O)NC(C)(C)C(=O)N[C@@H](C)C(=O)N[C@@H](CCCCN)C(=O)N[C@@H](CC(C)C)C(N)=O)C(C)C)C(C)C`, in that order: 1.2% and 19.8%.
For `CC(=O)NCSC[C@H](NC(=O)[C@H]1CCCN1C(=O)[C@H](CCCCN)NC(=O)[C@H](CO)NC(=O)[C@H](CCC(N)=O)NC(=O)[C@H](Cc1ccccc1)NC(C)=O)C(=O)N[C@H](C(=O)N[C@@H](Cc1cnc[nH]1)C(=O)N[C@H](C(=O)N[C@@H](CC(=O)O)C(=O)N[C@H](C)C(=O)N[C@@H](Cc1ccc(O)cc1)C(=O)N[C@@H](Cc1ccccc1)C(=O)N[C@@H](CCC(=O)O)C(=O)N[C@@H](CCCNC(=N)N)C(=O)N[C@@H](CC(C)C)C(=O)NC(C)(C)C(=O)N[C@@H](C)C(=O)N[C@@H](CCCCN)C(=O)N[C@@H](CC(C)C)C(N)=O)C(C)(C)C)C(C)C`, in that order: 43% and 86.2%.
For `CC(=O)NCSC[C@H](NC(=O)[C@H]1CCCN1C(=O)[C@H](CCCCN)NC(=O)[C@H](CO)NC(=O)[C@H](CCC(N)=O)NC(=O)[C@H](Cc1ccccc1)NC(C)=O)C(=O)N[C@H](C(=O)N[C@@H](Cc1c[nH]cn1)C(=O)N[C@H](C(=O)N[C@@H](CC(=O)O)C(=O)NCC(=O)N[C@@H](Cc1ccc(O)cc1)C(=O)N[C@@H](Cc1ccccc1)C(=O)N[C@@H](CCC(=O)O)C(=O)N[C@@H](CCCNC(=N)N)C(=O)N[C@@H](CC(C)C)C(=O)NC(C)(C)C(=O)N[C@@H](C)C(=O)N[C@@H](CCCCN)C(=O)N[C@@H](CC(C)C)C(N)=O)C(C)(C)C)C(C)C`, in that order: 36.1% and 81.2%.
As to `CC(=O)N[C@@H](Cc1ccccc1)C(=O)N[C@@H](CCC(N)=O)C(=O)N[C@@H](CO)C(=O)N[C@@H](CCCCN)C(=O)N1CCC[C@@H]1C(=O)N[C@@H](CC(N)=O)C(=O)N[C@H](C(=O)N[C@@H](Cc1cnc[nH]1)C(=O)N[C@H](C(=O)N[C@@H](CC(=O)O)C(=O)NCC(=O)N[C@@H](Cc1ccc(O)cc1)C(=O)N[C@@H](Cc1ccccc1)C(=O)N[C@@H](CCC(=O)O)C(=O)N[C@@H](CCCNC(=N)N)C(=O)N[C@@H](CC(C)C)C(=O)NC(C)(C)C(=O)N[C@@H](C)C(=O)N[C@@H](CCCCN)C(=O)N[C@@H](CC(C)C)C(N)=O)C(C)(C)C)C(C)C` (Ac-FQSK[dP]NVH[Tle]DGYFERL[Aib]AKL-NH2), the remaining at 24 h in series [1] worked out at 42.6%; in series [2], 81.9%.
The like results for `CCCCCC(=O)N[C@@H](Cc1ccccc1)C(=O)N[C@@H](CCC(N)=O)C(=O)N[C@@H](CO)C(=O)N[C@@H](CCCCN)C(=O)N1CCC[C@@H]1C(=O)N[C@@H](CC(N)=O)C(=O)N[C@H](C(=O)N[C@@H](Cc1cnc[nH]1)C(=O)N[C@H](C(=O)N[C@@H](CC(=O)O)C(=O)N[C@H](C)C(=O)N[C@@H](Cc1ccc(O)cc1)C(=O)N[C@@H](Cc1ccccc1)C(=O)N[C@@H](CCC(=O)O)C(=O)N[C@@H](CCCNC(=N)N)C(=O)N[C@@H](CC(C)C)C(=O)NC(C)(C)C(=O)N[C@@H](C)C(=O)N[C@@H](CCCCN)C(=O)N[C@@H](CC(C)C)C(N)=O)C(C)(C)C)C(C)C` were, in that order, 39.9% and 97.4%.
For `CC(=O)N[C@@H](Cc1ccccc1)C(=O)N[C@@H](CCC(N)=O)C(=O)N[C@@H](CO)C(=O)N[C@@H](CCCCN)C(=O)N1CCC[C@@H]1C(=O)N[C@@H](CC(N)=O)C(=O)N[C@H](C(=O)N[C@@H](Cc1cnc[nH]1)C(=O)N[C@H](C(=O)N[C@@H](CC(=O)O)C(=O)N[C@H](C)C(=O)N[C@@H](Cc1ccc(O)cc1)C(=O)N[C@@H](Cc1ccccc1)C(=O)N[C@@H](CCC(=O)O)C(=O)N[C@@H](CCCNC(=N)N)C(=O)N[C@@H](CC(C)C)C(=O)NC1(C(=O)N[C@@H](C)C(=O)N[C@@H](CCCCN)C(=O)N[C@@H](CC(C)C)C(N)=O)Cc2ccccc2C1)C(C)(C)C)C(C)C`, in that order: 53% and 104%.
With `CC(=O)N[C@@H](Cc1ccccc1)C(=O)N[C@@H](CCC(N)=O)C(=O)N[C@@H](CO)C(=O)N[C@@H](CCCCN)C(=O)N1CCC[C@@H]1C(=O)N[C@@H](CC(N)=O)C(=O)N[C@H](C(=O)N[C@@H](Cc1cnc[nH]1)C(=O)N[C@H](C(=O)N[C@@H](CC(=O)O)C(=O)N[C@@H]1CSSCC[C@@H](C(=O)N[C@@H](CCCNC(=N)N)C(=O)N[C@@H](CC(C)C)C(=O)N[C@@H](C)C(=O)N[C@@H](C)C(=O)N[C@@H](CCCCN)C(=O)N[C@@H](CC(C)C)C(N)=O)NC(=O)[C@H](Cc2ccccc2)NC(=O)[C@H](Cc2ccc(O)cc2)NC1=O)C(C)(C)C)C(C)C`, the remaining at 24 h in series [1] amounted to 11.1%; in series [2], 61.5%.
In the case of `CC(=O)N[C@@H](Cc1csc2ccccc12)C(=O)N[C@@H](CCC(N)=O)C(=O)N[C@@H](CO)C(=O)N[C@@H](CCCCN)C(=O)N1CCC[C@@H]1C(=O)N[C@@H](CC(N)=O)C(=O)N[C@H](C(=O)N[C@@H](Cc1cnc[nH]1)C(=O)N[C@H](C(=O)N[C@@H](CC(=O)O)C(=O)NCC(=O)N[C@@H](Cc1ccc(O)cc1)C(=O)N[C@@H](Cc1ccccc1)C(=O)N[C@@H](CCC(=O)O)C(=O)N[C@@H](CCCNC(=N)N)C(=O)N[C@@H](CC(C)C)C(=O)NC(C)(C)C(=O)N[C@@H](C)C(=O)N[C@@H](CCCCN)C(=O)N[C@@H](CC(C)C)C(N)=O)C(C)C)C(C)C`, the remaining at 24 h was determined as 0% in series [1] and 18.6% in series [2].
The like results for `CCCCCCCCCCCCCCCC(=O)NCCCOCCOCCOCCCNC(=O)CCNC(=O)CCC(=O)NCCCC[C@H](NC(=O)[C@H](CC(C)C)NC(=O)[C@H](CCCCN)NC(=O)[C@H](C)NC(=O)C(C)(C)NC(=O)[C@H](CC(C)C)NC(=O)[C@H](CCCNC(=N)N)NC(=O)[C@H](CCC(=O)O)NC(=O)[C@H](Cc1ccccc1)NC(=O)[C@H](Cc1ccc(O)cc1)NC(=O)[C@@H](C)NC(=O)[C@H](CC(=O)O)NC(=O)[C@@H](NC(=O)[C@H](Cc1cnc[nH]1)NC(=O)[C@@H](NC(=O)[C@H](CSCNC(C)=O)NC(=O)[C@H]1CCCN1C(=O)[C@H](CCCCN)NC(=O)[C@H](CO)NC(=O)[C@H](CCC(N)=O)NC(=O)[C@H](Cc1ccccc1)NC(=O)CCCCC)C(C)C)C(C)(C)C)C(N)=O` were, in that order, 67.5% and 108%.
The like results for `CC(=O)N[C@@H](Cc1ccccc1)C(=O)N[C@@H](CCC(N)=O)C(=O)N[C@@H](CO)C(=O)N[C@@H](CCCCN)C(=O)N1CCC[C@@H]1C(=O)N[C@@H](CC(N)=O)C(=O)N[C@H](C(=O)N[C@@H](Cc1cnc[nH]1)C(=O)N[C@H](C(=O)N1CCC[C@H]1C(=O)NCC(=O)N[C@@H](Cc1ccc(O)cc1)C(=O)N[C@@H](Cc1ccccc1)C(=O)NC(C)(C)C(=O)N[C@@H](CCCNC(=N)N)C(=O)N[C@@H](CC(C)C)C(=O)NC(C)(C)C(=O)N[C@@H](C)C(=O)N[C@@H](CCCCN)C(=O)N[C@@H](CC(C)C)C(N)=O)C(C)C)C(C)C` were, in that order, 31.2% and 99.5%.
For `CC(C)C[C@H](NC(=O)[C@H](CCCCN)NC(=O)[C@H](C)NC(=O)C(C)(C)NC(=O)[C@H](CC(C)C)NC(=O)[C@H](CCCNC(=N)N)NC(=O)[C@H](CCC(=O)O)NC(=O)[C@H](Cc1ccccc1)NC(=O)[C@H](Cc1ccc(O)cc1)NC(=O)[C@@H](C)NC(=O)[C@H](CC(=O)O)NC(=O)[C@@H](NC(=O)[C@H](Cc1cnc[nH]1)NC(=O)[C@@H](NC(=O)[C@H](CC(N)=O)NC(=O)[C@H]1CCCN1C(=O)[C@H](CCCCN)NC(=O)[C@H](CO)NC(=O)[C@H](CCC(N)=O)NC(=O)[C@H](Cc1ccccc1)NS(=O)(=O)c1cccc2ccccc12)C(C)C)C(C)(C)C)C(N)=O`, in that order: 52% and 107%.
For `CC(=O)N[C@@H](Cc1ccccc1)C(=O)N[C@@H](CCC(N)=O)C(=O)N[C@@H](CO)C(=O)N[C@@H](CCCCN)C(=O)N1CCC[C@@H]1C(=O)N[C@@H](CC(N)=O)C(=O)N[C@H](C(=O)N[C@@H](Cc1cnc[nH]1)C(=O)N[C@H](C(=O)N[C@@H](CC(=O)O)C(=O)N[C@H](C)C(=O)N[C@@H](Cc1ccc(O)cc1)C(=O)N[C@@H](Cc1ccccc1)C(=O)N[C@@H](CCC(=O)O)C(=O)N[C@@H](CCCNC(=N)N)C(=O)N[C@@H](CC(C)C)C(=O)NC(C)(C)C(=O)N[C@@H]1CSSCCNC(=O)[C@H](CC(C)C)NC(=O)[C@H](CCCCN)NC1=O)C(C)(C)C)C(C)C`, the remaining at 24 h was 34.3% in series [1] and 12.1% in series [2].
`CC(=O)N[C@@H](Cc1cccc2ccccc12)C(=O)N[C@@H](CCC(N)=O)C(=O)N[C@@H](CO)C(=O)N[C@@H](CCCCN)C(=O)N1CCC[C@@H]1C(=O)N[C@@H](CC(N)=O)C(=O)N[C@H](C(=O)N[C@@H](Cc1cnc[nH]1)C(=O)N[C@H](C(=O)N[C@@H](CC(=O)O)C(=O)NCC(=O)N[C@@H](Cc1ccc(O)cc1)C(=O)N[C@@H](Cc1ccccc1)C(=O)N[C@@H](CCC(=O)O)C(=O)N[C@@H](CCCNC(=N)N)C(=O)N[C@@H](CC(C)C)C(=O)NC(C)(C)C(=O)N[C@@H](C)C(=O)N[C@@H](CCCCN)C(=O)N[C@@H](CC(C)C)C(N)=O)C(C)C)C(C)C`: the results for the remaining at 24 h in series [1] and in series [2] were 0% and 19.3%, respectively.

The values are drawn from ChEMBL document CHEMBL4420062, “Tfpi inhibitors and methods of use” (2013).
